Results as given in patent publication US7932251B2, “6-phenyl-1H-imidazo[4,5-c]pyridine-4-carbonitrile derivatives” (priority 2007, dated 2011).

Molecular target: recombinant human Cathepsin S (Homo sapiens, UniProt P25774)
Test: Cathepsin S assay: inhibition of recombinant human cathepsin S, fluorogenic substrate Z-Val-Val-Arg-AMC
Assay type: biochemical
Description: Cathepsin S Assay Procedure
To a 384 well microtitre plate is added 10 μl of a 100 μM solution of test compound in assay buffer (110 mM sodium acetate pH5.5, 5 mM EDTA, 5 mM dithiothreitol) with 10% dimethylsulfoxide (DMSO), plus 20 μl of 250 μM solution of the substrate
Z-Val-Val-Arg-AMC (7-amido-coumarine derivative of the tripeptide N-benzyloxycarbonyl-Val-Val-Arg-OH) in assay buffer and 45 μl of assay buffer. 25 μl of a 2 mg/l solution of activated recombinant human cathepsin S, in assay buffer, is then added to the well, yielding a final inhibitor concentration of 10 μM. Enzyme activity is determined by measuring the fluorescence of the liberated aminomethylcoumarin at […] using 390 nm excitation, at 20 minutes. Percentage enzyme activity is calculated by comparison of this activity to that of a solution containing no inhibitor.

Sequence of recombinant human Cathepsin S (P25774 115-331): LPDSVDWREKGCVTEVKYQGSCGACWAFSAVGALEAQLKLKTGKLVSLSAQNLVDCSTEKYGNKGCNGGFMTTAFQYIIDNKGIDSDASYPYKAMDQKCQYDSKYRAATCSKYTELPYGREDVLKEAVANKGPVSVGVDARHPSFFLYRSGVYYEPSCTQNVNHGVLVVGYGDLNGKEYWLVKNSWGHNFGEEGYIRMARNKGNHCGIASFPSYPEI

SMILES | IC50
Cn1cnc2c(C#N)nc(-c3ccc(OCCCO)c(C(F)(F)F)c3)cc21 [Example 1] | < 100 nM
CN(C)CCCOc1ccc(-c2cc3c(ncn3C)c(C#N)n2)cc1C(F)(F)F [Example 2a, 6-[4-(3-Dimethylaminopropoxy)-3-(trifluoromethyl)-phenyl]-1-methyl-1H-imidazo[4,5-g]pyridine-4-carbonitrile] | < 100 nM
Cn1cnc2c(C#N)nc(-c3ccc(OCCCN4CCCC4)c(C(F)(F)F)c3)cc21 [Example 2c, 1-Methyl-6-[4-(3-pyrrolidin-1-ylpropoxy)-3-(trifluoromethyl)-phenyl]-1H-imidazo[4,5-c]pyridine-4-carbonitrile] | < 100 nM
CCN(CC)CCCOc1ccc(-c2cc3c(ncn3C)c(C#N)n2)cc1C(F)(F)F [Example 2u, 6-[4-(3-N,N-Diethylamino-propoxy)-3-(trifluoromethyl)-phenyl]-1-methyl-1H-imidazo[4,5-d]pyridine-4-carbonitrile] | < 100 nM
CN1CCN(CCCOc2ccc(-c3cc4c(ncn4C)c(C#N)n3)cc2C(F)(F)F)CC1(C)C [Example 4a, 1-Methyl-6-{3-(trifluoromethyl)-4-[3-(3,3,4-trimethylpiperazin-1-yl)-propoxy]-phenyl}-1H-imidazo[4,5-c]pyridine-4-carbonitrile] | < 100 nM
Cn1cnc2c(C#N)nc(-c3ccc(OCCCN4CCNC(C)(C)C4)c(C(F)(F)F)c3)cc21 [Example 4b, 6-{4-[3-(3,3-Dimethylpiperazin-1-yl)-propoxy]-3-(trifluoromethyl)-phenyl}-1-methyl-1H-imidazo[4,5-c]pyridine-4-carbonitrile] | < 100 nM
CN1CCN(CCCOc2ccc(-c3cc4c(ncn4C)c(C#N)n3)cc2C(F)(F)F)CC1 [Example 4e, 1-Methyl-6-{4-[3-(4-methylpiperazin-1-yl)-propoxy]-3-(trifluoromethyl)-phenyl}-1H-imidazo[4,5-c]pyridine-4-carbonitrile] | < 100 nM
CCN1CCN(CCCOc2ccc(-c3cc4c(ncn4C)c(C#N)n3)cc2C(F)(F)F)CC1 [Example 4f, 6-{4-[3-(4-Ethylpiperazin-1-yl)-prooxy]-3-(trifluoromethyl)-phenyl}-1-methyl-1H-imidazo[4,5-c]pyridine-4-carbonitrile] | < 100 nM
CNC(=O)C1CCN(CCCOc2ccc(-c3cc4c(ncn4C)c(C#N)n3)cc2C(F)(F)F)CC1 [Example 5a, 1-Methyl-6-(4-{3-[4-(N-methylaminocarbonyl)-piperidin-1-yl]-propoxy}-3-(trifluoromethyl)-phenyl)-1H-imidazo[4,5-c]pyridine-4-carbonitrile] | < 100 nM
CCc1nccn1CCCOc1ccc(-c2cc3c(ncn3C)c(C#N)n2)cc1C(F)(F)F [Example 7b, 6-{4-[3-(2-Ethyl-imidazol-1-yl)-propoxy]-3-(trifluoromethyl)-phenyl}-1-methyl-1H-imidazo[4,5-c]pyridine-4-carbonitrile] | < 100 nM
C[C@@H]1CN(CCOc2ccc(-c3cc4c(ncn4C)c(C#N)n3)cc2C(F)(F)F)C[C@H](C)N1 [Example 9d, 6-{4-[2-(cis-3,5-dimethyl-piperazin-1-yl)-ethoxy]3-(trifluoromethyl)-phenyl}-1-methyl-1H-imidazo[4,5-c]pyridine-4-carbonitrile] | < 100 nM
CN1CCC2(CC1)NC(=O)N(CCOc1ccc(-c3cc4c(ncn4C)c(C#N)n3)cc1C(F)(F)F)C2=O [Example 11, 1-Methyl-6-{4-[2-(8-methyl-2,4-dioxo-1,3,8-triaza-spiro[4.5]dec-3-yl)-ethoxy]-3-(trifluoromethyl)-phenyl}-1H-imidazo[4,5-c]pyridine-4-carbonitrile] | < 100 nM
Cn1cnc2c(C#N)nc(-c3ccc(OCCN4C(=O)NC5(CCNCC5)C4=O)c(C(F)(F)F)c3)cc21 [Example 12, 6-(4-[2-(2,4-Dioxo-1,3,8-triaza-spiro[4.5]dec-3-yl)-ethoxy]-3-(trifluoromethyl)-phenyl]-1-methyl-1H-imidazo[4,5-c]pyridine-4-carbonitrile] | < 100 nM
Cn1cnc2c(C#N)nc(-c3ccc(OCc4ccccn4)c(C(F)(F)F)c3)cc21 [Example 13c, 1-Methyl-6-[4-(pyridin-2-yl-methoxy)-3-(trifluoromethyl)-phenyl]-1H-imidazo[4,5-c]pyridine-4-carbonitrile] | < 100 nM
CCN1CCN(CCCOc2ccc(-c3cc4[nH]cnc4c(C#N)n3)cc2C(F)(F)F)CC1 [Example 20f] | < 100 nM
